The values below are quoted from earlier work in US20150320795A1, “COMPOSITIONS AND METHODS COMPRISING POLYETHYLENE GLYCOL AND MAGNESIUM FOR TREATMENT OF NEURONAL INJURY” (priority 2012, published 2015).

The test system of one series is brain injury. Conditions: animals; U.S. application Ser. No. 11/418,153.
The conditions of series [1]: previously published.

Like-named read-outs stand apart in the source and are kept apart here.

Regarding `[Mg+2]` [magnesium], the “effect on the loss of cognitive functions following brain injury” value in the series on brain injury is reported as “no effect”. Besides, the serum magnesium half-lives in series [1] (brain injured patients after a 24-hour infusion period) was roughly 6 h; in series [1] (healthy volunteers, after one infusion) it was 1.25 to 4.75 h; in series [1] (patients, pre-eclampsia) it was 5.2 h.
